The values below come from ChEMBL document CHEMBL5528020, “Small molecular CD73 inhibitors: Recent progress and future perspectives” (Eur J Med Chem, 2024).

A value given as a limit tells only on which side of the number the result lay.

Chain of 5'-nucleotidase (P21589 whole entry): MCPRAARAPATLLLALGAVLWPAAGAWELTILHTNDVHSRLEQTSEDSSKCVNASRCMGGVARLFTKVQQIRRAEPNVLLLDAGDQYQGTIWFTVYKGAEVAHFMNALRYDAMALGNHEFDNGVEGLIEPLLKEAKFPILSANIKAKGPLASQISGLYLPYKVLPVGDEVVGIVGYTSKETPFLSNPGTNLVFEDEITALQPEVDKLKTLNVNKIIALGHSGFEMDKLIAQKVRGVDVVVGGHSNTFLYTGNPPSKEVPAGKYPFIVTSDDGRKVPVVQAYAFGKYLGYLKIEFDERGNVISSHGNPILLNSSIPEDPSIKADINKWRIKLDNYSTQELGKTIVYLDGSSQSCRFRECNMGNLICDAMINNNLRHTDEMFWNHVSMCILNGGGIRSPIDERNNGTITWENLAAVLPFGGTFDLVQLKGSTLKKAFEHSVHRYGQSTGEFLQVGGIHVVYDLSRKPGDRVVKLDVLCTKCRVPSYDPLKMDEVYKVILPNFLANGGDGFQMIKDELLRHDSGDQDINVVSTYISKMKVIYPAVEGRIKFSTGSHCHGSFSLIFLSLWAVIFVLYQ

This test addresses 5'-nucleotidase (Homo sapiens, UniProt P21589). In words: Inhibition of human recombinant Ecto-5'-nucleotidase.
Consider `O=S(=O)(c1ccc(-n2nccc2-c2ccc3nnn(-c4ccc5cn[nH]c5c4)c3c2)c(Br)c1)C(F)(F)F`, for which the IC50 is above 0.1 nM.
For `N#Cc1ccc(-c2ncsc2-c2cc3c(-c4ccc5cn[nH]c5c4)nnc-3co2)cc1`, the IC50 was above 0.1 nM.
As to `Cc1nc(-c2ccnn2-c2ccc(C#N)cc2)nc2cc(-c3ccc4cn[nH]c4c3)cnc12`, the IC50 is above 0.1 nM.
Take `O=S(=O)(c1ccc(-n2nccc2-c2ccc3nnn(-c4ccc5cn[nH]c5c4)c3c2)cc1Br)C(F)(F)F`: the IC50 was above 0.1 nM.
To `CC1NC(n2nnc3ccc(-c4ccnn4-c4ccc(C#N)cc4)cc32)CCS1` (stereo not drawn) belongs above 0.1 nM; to `O=S(=O)(c1ccc(-c2nsnc2-c2cc3c(-c4cccc(O)c4)nnc-3co2)cc1Br)C(F)(F)F`, above 0.1 nM; to `O=S(=O)(c1ccc(-c2nn[nH]c2-c2cc3c(-c4cccc(O)c4)nnc-3co2)cc1Br)C(F)(F)F`, above 0.1 nM.
With `N#Cc1ccc(-n2nccc2-c2ccc3nnn(-c4cccc(O)c4)c3c2)cc1`, the IC50 is above 0.1 nM.

The term IC50 denotes the concentration at which inhibition is half-maximal.
